Assay results from patent US5968910A, “Compositions containing two or three inhibitors of different HIV reverse transcriptases” (priority 1994, dated 1999).
Values after ≈ are worked out from the molar mass of the structure shown. Where two headings read alike, the source gives them in different places.

Columns and labels:
[1] = test system: HIV-1/TIBO R82150 (100-Ile); conditions: background, Balzarini I/II; cited from earlier work
[2] = biological target: HIV-1 RT (WT) (Human immunodeficiency virus type 1 group M subtype B, UniProt P03366); assay: biochemical; conditions: IC50, anti-HIV-1 RT (WT) activity
Method: The reaction mixture (50 μl) contained 50 mM Tris.HCl, pH 7.8, 5 mM dithiothreitol, […] glutathione, 500 μM EDTA, 150 mM KCl, 5 mM MgCl2, 1.25 μg of bovine serum albumin, a fixed concentration of the labeled substrate [2,8-^3 H]dGTP (2.95 μM, 2 μCi), a fixed concentration of the template/primer poly(C).oligo(dG) (0.1 mM), 0.06% Triton X-100, 5 μl of inhibitor solution [containing various concentrations (5-fold dilutions) of the test compounds], and 5 μl of the RT preparation. The reaction mixtures were incubated at 37° C. for 30 min, at which time 100 μl of calf thymus DNA (150 μg/ml), 2 ml of Na4 P2 07 (0.1 M in 1M HCl), and 2 ml of trichloroacetic acid (10%, v/v) were added. The solutions were kept on ice for 30 min, after which the acid-insoluble material was washed and analyzed for radioactivity.
Compounds I, III, IV and V were evaluated for their inhibitory effect on recombinant HIV-1 RT.

[3] = test system: HIV-1(IIIB) (WT); assay: microbe, parasite or virus in culture; assay type: cell-based; conditions: Human immunodeficiency virus 1, IIIB, CCRF-CEM
Method: (§1) CEM cells were suspended at 250,000 cells per ml of culture medium and infected with wild-type HIV-I(IIIB) or mutant HIV-1 strains at 100 50% cell culture infective doses per ml. Then 100 μl of the infected cell suspensions was added to 200-μl microtiter plate wells containing 100 μl of an appropriate dilution of the test compounds. After 4 days incubation at 37° C., the cell cultures were examined for syncytium formation.

[4] = test system: HIV-1/TIBO R82150 (100-Ile); assay: Sensitivity of mutant HIV-1 strain in CEM cell cultures; assay type: cell-based; conditions: Human immunodeficiency virus 1, CCRF-CEM; CEM cells, Table 1; read-out: 50% Effective Concentration
Method: as §1

[5] = test system: HIV-1/V(0.5) 103-Asn; assay: as above; assay type: cell-based; conditions: Human immunodeficiency virus 1, CCRF-CEM; Table 5; read-out: EC50
Method: as §1

[6] = test system: HIV-1/II(0.1) 100-Ile; assay: as above; assay type: cell-based; conditions: Human immunodeficiency virus 1, CCRF-CEM; Table 5; read-out: EC50
Method: as §1

[7] = test system: HIV-1/V(0.1) 101-Ile + 141-Glu; assay: as above; assay type: cell-based; conditions: Human immunodeficiency virus 1, CCRF-CEM; Table 5; read-out: EC50
Method: as §1

[8] = test system: HIV-1/I(0.1) 103-Asn; assay: as above; assay type: cell-based; conditions: Human immunodeficiency virus 1, CCRF-CEM; Table 5; read-out: EC50
Method: as §1

[9] = test system: HIV-1/TIBO R82913 (103-Asn); assay: as above; assay type: cell-based; conditions: Human immunodeficiency virus 1, CCRF-CEM; CEM cells, Table 1; read-out: 50% Effective Concentration
Method: as §1

[10] = test system: HIV-1/TSAO-m^3 T (138-Lys); assay: as above; assay type: cell-based; conditions: Human immunodeficiency virus 1, CCRF-CEM; CEM cells, Table 1; read-out: 50% Effective Concentration
Method: as §1

[11] = test system: HIV-1/B 101Glu; assay: as above; assay type: cell-based; conditions: Human immunodeficiency virus 1, CCRF-CEM; Table 5; read-out: EC50
Method: as §1

[12] = test system: HIV-1/Pyr (181-Cys); assay: as above; assay type: cell-based; conditions: Human immunodeficiency virus 1, CCRF-CEM; CEM cells, Table 1; read-out: 50% Effective Concentration
Method: as §1

[13] = test system: HIV-1/Nev (106-Ala); assay: as above; assay type: cell-based; conditions: Human immunodeficiency virus 1, CCRF-CEM; CEM cells, Table 1; read-out: 50% Effective Concentration
Method: as §1

[14] = test system: HIV-1/III(0.1) 103-Asn; assay: as above; assay type: cell-based; conditions: Human immunodeficiency virus 1, CCRF-CEM; Table 5; read-out: EC50
Method: as §1

[15] = test system: HIV-1/IV(0.1) 103-Thr; assay: as above; assay type: cell-based; conditions: Human immunodeficiency virus 1, CCRF-CEM; Table 5; read-out: EC50
Method: as §1

Row | SMILES | resistance of HIV-1 strains containing the 100 Leu→Ile mutation in their RT [1] | IC50 [2] | EC50 ([3]; CEM cells, Table 1, read-out: 50% Effective Concentration) | EC50 ([3]; HIV-1 (III8), Table 5, read-out: EC50) | EC50 [4] | EC50 [5] | EC50 [6] | EC50 [7] | EC50 [8] | EC50 [9] | EC50 [10] | EC50 [11] | EC50 [12] | EC50 [13] | EC50 [14] | EC50 [15]
1 | CC(C)=CCN1Cc2cccc3[nH]c(=S)n(c23)C[C@@H]1C [Compound R82150] | resistant |  |  |  |  |  |  |  |  |  |  |  |  |  |  | 
2 | CCc1cc(NCc2nc3c(Cl)ccc(Cl)c3o2)c(O)nc1C [Pyridinone L-697,661, 3-{[(4,7-dichloro-1,3-benzoxazol-2-yl)methyl]amino}-5-ethyl-6-methylpyridin-2(1H)-one, reference compound] |  | 1080 nM | 7 ng/mL (≈ 0.0199 µM) | 7 ng/mL (≈ 0.0199 µM) | 0.18 µg/mL (≈ 0.511 µM) | 0.55 µg/mL (≈ 1.56 µM) | 0.63 µg/mL (≈ 1.79 µM) | 0.08 µg/mL (≈ 0.227 µM) | 0.3 µg/mL (≈ 0.852 µM) | 0.5 µg/mL (≈ 1.42 µM) | 0.17 µg/mL (≈ 0.483 µM) | 0.035 µg/mL (≈ 0.0994 µM) | 3.67 µg/mL (≈ 10.4 µM) | 0.24 µg/mL (≈ 0.681 µM) | 0.03 µg/mL (≈ 0.0852 µM) | 0.5 µg/mL (≈ 1.42 µM)
